In paper PMC10081510 (Journal of medicinal chemistry, 2022):
Converted amounts (≈) assume the structure as drawn. “Also recorded” adds a separate entry of the source.

What was measured:
[1] = In vivo pharmacokinetic studies; parameters: species or system CD-1 mice; conditions: for clearance / AUC(0-inf) / Vd / Cmax / bioavailability / half-life: male, CD-1, mouse, plasma
[2] = Clinical observations during mouse PK studies; type: in vivo; conditions: CD-1 mice; for tolerability / clinical signs: 3 mg/kg iv and 10 mg/kg po
MV4:11 = test: Cell proliferation assay; type: cell-based; conditions: GI50,K562/GI50,MV4:11
WDR5 = WDR5 (Homo sapiens, UniProt P61964); test: TR-FRET competition assay against MLL1-derived 10-mer-Thr-FAM peptide probe; type: binding
K562 = test: Cell proliferation assay; type: cell-based; conditions: Homo sapiens, K562, 120 h, read-out: Cell Proliferation Assays GI50 (nM) K562
Kinetic solubility assay = type: physicochemical; conditions: phosphate-buffered saline, pH 7.4
[3] = Microsomal intrinsic clearance assay; type: in vitro ADME; conditions: rat, pooled liver microsomes
MV4:11 mouse xenograft = conditions: ip (DDO-2093) and po (DDO-2213) dosing; cited from earlier work
MV4:11 cancer cells = conditions: cited from earlier work
mouse models = conditions: cited from earlier work

COc1cc(CN2CCc3c(cc(Cn4ccn(C)c4=N)cc3-c3ccc(F)cc3C)C2=O)cc(OC)c1 [Compound 1]
oral exposure ([1]; CD-1 mice, 3 mg/kg po): below the limit of quantitation
clearance ([1]; iv, 3 mg/kg): 78 mL/min/kg
acute toxicity signs ([2]; 3 mg/kg iv, 3 mg/kg): signs of severe acute toxicity; also recorded: lethality

COc1cc(CN2CCc3c(cc(Cn4cccn4)cc3-c3cn(C)nc3C(F)(F)F)C2=O)cc(OC)c1 [Compound 17, 7-((1H-Pyrazol-1-yl)methyl)-2-(3,5-dimethoxybenzyl)-5-(1-methyl-3-(trifluoromethyl)-1H-pyrazol-4-yl)-3,4-dihydroisoquinolin-1(2H)-one]
Selectivity K562/MV4:11 (MV4:11): >1

COc1cc(CN2CCc3c(cc(Cn4cccc4)cc3-c3cn(C)nc3C(F)(F)F)C2=O)cc(OC)c1 [Compound 18, 7-((1H-Pyrrol-1-yl)methyl)-2-(3,5-dimethoxybenzyl)-5-(1-methyl-3-(trifluoromethyl)-1H-pyrazol-4-yl)-3,4-dihydroisoquinolin-1(2H)-one]
Selectivity K562/MV4:11 (MV4:11): >2

COc1cc(CN2CCc3c(cc(Cn4cnnc4)cc3-c3cn(C)nc3C(F)(F)F)C2=O)cc(OC)c1 [Compound 19, 7-((4H-1,2,4-Triazol-4-yl)methyl)-2-(3,5-dimethoxybenzyl)-5-(1-methyl-3-(trifluoromethyl)-1H-pyrazol-4-yl)-3,4-dihydroisoquinolin-1(2H)-one]
Selectivity K562/MV4:11 (MV4:11): >2

CCc1nccn1Cc1cc2c(c(-c3cn(C)nc3C(F)(F)F)c1)CCN(Cc1cc(OC)cc(OC)c1)C2=O [Compound 21, 2-(3,5-Dimethoxybenzyl)-7-((2-ethyl-1H-imidazol-1-yl)methyl)-5-(1-methyl-3-(trifluoromethyl)-1H-pyrazol-4-yl)-3,4-dihydroisoquinolin-1(2H)-one]
Ki (WDR5): 0.022 ± 0.001 nM

COc1cc(CN2CCc3c(cc(Cn4ccnc4C(C)C)cc3-c3cn(C)nc3C(F)(F)F)C2=O)cc(OC)c1 [Compound 22, 2-(3,5-Dimethoxybenzyl)-7-((2-isopropyl-1H-imidazol-1-yl)methyl)-5-(1-methyl-3-(trifluoromethyl)-1H-pyrazol-4-yl)-3,4-dihydroisoquinolin-1(2H)-one]
GI50 (K562): 16000 ± 3100 nM

COc1cc(CN2CCc3c(cc(Cn4ccnc4C(F)F)cc3-c3cn(C)nc3C(F)(F)F)C2=O)cc(OC)c1 [Compound 24, 7-((2-(Difluoromethyl)-1H-imidazol-1-yl)methyl)-2-(3,5-dimethoxybenzyl)-5-(1-methyl-3-(trifluoromethyl)-1H-pyrazol-4-yl)-3,4-dihydroisoquinolin-1(2H)-one]
Selectivity K562/MV4:11 (MV4:11): >3

CCn1cc(-c2cc(Cn3ccnc3C)cc3c2CCN([C@@H](C)c2cc(OC)ccn2)C3=O)c(C(F)(F)F)n1 [Compound 34, (S)-5-(1-Ethyl-3-(trifluoromethyl)-1H-pyrazol-4-yl)-2-(1-(4-methoxypyridin-2-yl)ethyl)-7-((2-methyl-1H-imidazol-1-yl)methyl)-3,4-dihydroisoquinolin-1(2H)-one]
clearance ([1]; iv, 3 mg/kg): 118 mL/min/kg
tolerability / clinical signs [2]: behaved normally during the study and showed no adverse effects

CCn1cc(-c2cc(Cn3ccnc3C)cc3c2CCN([C@H](c2cc(OC)ccn2)C2CC2)C3=O)c(C(F)(F)F)n1 [Compound 36, (S)-2-(Cyclopropyl(4-methoxypyridin-2-yl)methyl)-5-(1-ethyl-3-(trifluoromethyl)-1H-pyrazol-4-yl)-7-((2-methyl-1H-imidazol-1-yl)methyl)-3,4-dihydroisoquinolin-1(2H)-one]
AUC(0-inf) ([1]; iv, 3 mg/kg): 1240 ng·h/mL
Vd ([1]; iv, 3 mg/kg): 1.6 L/kg
clearance ([1]; iv, 3 mg/kg): 41 mL/min/kg
AUC(0-inf) ([1]; po, 10 mg/kg): 508 ng·h/mL
Cmax ([1]; po, 10 mg/kg): 652 ng/mL
bioavailability ([1]; po, 10 mg/kg): 12%
half-life ([1]; po, 10 mg/kg): 1.4 h
solubility kinetic at 1 h (Kinetic solubility assay): 65 µM (≈ 36.7 µg/mL)
GI50 (K562): 2600 ± 1500 nM
Ki (WDR5): < 0.02 nM
tolerability / clinical signs [2]: behaved normally during the study and showed no adverse effects

CCn1cc(-c2cc(Cn3ccnc3C)cc3c2CCN([C@H](c2cc(C)ccn2)C2CC2)C3=O)c(C(F)(F)F)n1 [Compound 37, (S)-2-(Cyclopropyl(4-methylpyridin-2-yl)methyl)-5-(1-ethyl-3-(trifluoromethyl)-1H-pyrazol-4-yl)-7-((2-methyl-1H-imidazol-1-yl)methyl)-3,4-dihydroisoquinolin-1(2H)-one]
clearance ([1]; iv, 3 mg/kg): 25 mL/min/kg
tolerability / clinical signs [2]: behaved normally during the study and showed no adverse effects

CCn1cc(-c2cc(Cn3ccnc3)cc3c2CCN([C@@H](C)c2cc(OC)ccn2)C3=O)c(C(F)(F)F)n1 [Compound 38, (S)-7-((1H-Imidazol-1-yl)methyl)-5-(1-ethyl-3-(trifluoromethyl)-1H-pyrazol-4-yl)-2-(1-(4-methoxypyridin-2-yl)ethyl)-3,4-dihydroisoquinolin-1(2H)-one]
Selectivity K562/MV4:11 (MV4:11): 200
AUC(0-inf) ([1]; iv, 3 mg/kg): 707 ng·h/mL
Vd ([1]; iv, 3 mg/kg): 2.3 L/kg
clearance ([1]; iv, 3 mg/kg): 76 mL/min/kg
bioavailability ([1]; oral, 10 mg/kg): 73%
AUC(0-inf) ([1]; po, 10 mg/kg): 1710 ng·h/mL
Cmax ([1]; po, 10 mg/kg): 2010 ng/mL
half-life ([1]; po, 10 mg/kg): 1.2 h
half-life at 1 μM [3]: 0.367 h
microsomal CLint at 1 μM [3]: 31 µL/min/mg
solubility kinetic at 1 h (Kinetic solubility assay): 86 µM (≈ 45.1 µg/mL)
GI50 (K562): 1900 ± 1800 nM
Ki (WDR5): < 0.02 nM
tolerability / clinical signs [2]: behaved normally during the study and showed no adverse effects

CCn1cc(-c2cc(Cn3ccnc3)cc3c2CCN([C@H](c2cc(OC)ccn2)C2CC2)C3=O)c(C(F)(F)F)n1 [Compound 40, (S)-7-((1H-Imidazol-1-yl)methyl)-2-(cyclopropyl(4-methoxypyridin-2-yl)methyl)-5-(1-ethyl-3-(trifluoromethyl)-1H-pyrazol-4-yl)-3,4-dihydroisoquinolin-1(2H)-one]
tolerability / clinical signs [2]: behaved normally during the study and showed no adverse effects

CCn1cc(-c2cc(Cn3ccnc3)cc3c2CCN([C@H](c2cc(C)ccn2)C2CC2)C3=O)c(C(F)(F)F)n1 [Compound 41, (S)-7-((1H-Imidazol-1-yl)methyl)-2-(cyclopropyl(4-methylpyridin-2-yl)methyl)-5-(1-ethyl-3-(trifluoromethyl)-1H-pyrazol-4-yl)-3,4-dihydroisoquinolin-1(2H)-one]
Selectivity K562/MV4:11 (MV4:11): 290
AUC(0-inf) ([1]; iv, 3 mg/kg): 1950 ng·h/mL
Vd ([1]; iv, 3 mg/kg): 1.6 L/kg
clearance ([1]; iv, 3 mg/kg): 26 mL/min/kg
bioavailability ([1]; oral, 10 mg/kg): 61%
AUC(0-inf) ([1]; po, 10 mg/kg): 3980 ng·h/mL
Cmax ([1]; po, 10 mg/kg): 2080 ng/mL
half-life ([1]; po, 10 mg/kg): 1.3 h
solubility kinetic at 1 h (Kinetic solubility assay): 60 µM (≈ 32.1 µg/mL)
GI50 (K562): 3700 ± 3100 nM
Ki (WDR5): < 0.02 nM
tolerability / clinical signs [2]: behaved normally during the study and showed no adverse effects

Cc1c(F)c(N)cc(C(=O)Nc2cc(-n3cc(C(=O)NCCCN4CCOCC4)nn3)ccc2N2CCN(C)CC2)c1Cl [DDO-2093]
in vivo tumor growth inhibition (MV4:11 mouse xenograft): marginal in vivo tumor growth inhibition
GI50 (MV4:11 cancer cells): ~10000 nM

CN1CCN(c2cc(F)c(-c3ccc(NC(=O)N(C)C)cc3)cc2Nc2ncnc(Cl)c2N)CC1 [DDO-2213]
in vivo tumor growth inhibition (MV4:11 mouse xenograft): marginal in vivo tumor growth inhibition
GI50 (MV4:11 cancer cells): ~10000 nM

Cc1ncsc1-c1ccc([C@H](C)NC(=O)[C@@H]2C[C@@H](O)CN2C(=O)[C@@H](NC(=O)CNC(=O)c2ccc(F)c(-c3ccc(N4C[C@@H](C)N(C)[C@@H](C)C4)c(NC(=O)c4c[nH]c(=O)cc4C(F)(F)F)c3)c2)C(C)(C)C)cc1 [MS67]
in vivo tumor growth inhibition (mouse models): demonstrated in vivo tumor growth inhibition
